In patent EP2465928A1, “Treatment of Th17-mediated diseases” (Academisch Medisch Centrum bij de Universiteit van Amsterdam, priority 2010, dated 2012):

What was measured:
Assay type in all cases: cell-based, human
Malt1 [1] = experiment: NF-κB DNA binding in nuclear extracts of stimulated DCs (TransAM NF-κB family kit); conditions: curdlan-stimulated DCs; 75 µM z-VRPR-FMK, 2 h pre-incubation
Experimental: (§1) Cells, stimulation, inhibition and RNA interference. This study was performed in accordance with the ethical guidelines of the Academic Medical Center. Immature DCs (iDC, day 6 and 7) were generated as described previously. In short, human blood monocytes were isolated from buffy coats by a Ficoll and a Percoll gradient and or CD14 selection by magnetic beads. Monocytes were differentiated into immature DCs in the presence of IL-4 and GM-CSFAt day 6 the phenotype of the cultured DCs was confirmed by flow cytometric analysis. 100.000 DCs were stimulated with 10 µg/ml curdlan (Sigma), heat-killed Candida spp. (multiplicity of infection (MOI) 10) and 10 ng/ml LPS from Salmonella typhosa (Sigma) in 100-150 µl medium. Dectin-2 triggering was induced by pre-incubating DCs for 2 h at room temperature with 5 µg/ml anti-dectin-2 (MAB3114; R&D Systems), followed by cross-linking on goat-anti-mouse IgG (115-006-0710; Jackson)-coated culture plates. Cells were pre-incubated with blocking antibodies or inhibitor for 2 h with 20 µg/ml anti-dectin-1 (MAB1859; R&D Systems), 20 µg/ml anti-dectin-2 (MAB3114; R&D Systems) or 75 µM z-VRPR-FMK (Malt1 inhibitor [22]; Alexis). […]
NF-κB DNA binding. Nuclear extracts of DCs were prepared using NucBuster protein extraction kit (Novagen) and NF-κB DNA binding determined using TransAM NF-κB family kit (Active Motif).

Malt1 [2] = experiment: Immunofluorescence staining of nuclear translocation of NF-κB subunits in DCs; conditions: curdlan-stimulated DCs; 75 µM z-VRPR-FMK; data not shown
Experimental: as §1

Malt1 [3] = experiment: Quantitative real-time PCR for cytokine mRNAs in stimulated DCs; conditions: curdlan-stimulated DCs; 75 µM z-VRPR-FMK
Experimental: (§2) Cells, stimulation, inhibition and RNA interference. This study was performed in accordance with the ethical guidelines of the Academic Medical Center. Immature DCs (iDC, day 6 and 7) were generated as described previously. In short, human blood monocytes were isolated from buffy coats by a Ficoll and a Percoll gradient and or CD14 selection by magnetic beads. Monocytes were differentiated into immature DCs in the presence of IL-4 and GM-CSFAt day 6 the phenotype of the cultured DCs was confirmed by flow cytometric analysis. 100.000 DCs were stimulated with 10 µg/ml curdlan (Sigma), heat-killed Candida spp. (multiplicity of infection (MOI) 10) and 10 ng/ml LPS from Salmonella typhosa (Sigma) in 100-150 µl medium. Dectin-2 triggering was induced by pre-incubating DCs for 2 h at room temperature with 5 µg/ml anti-dectin-2 (MAB3114; R&D Systems), followed by cross-linking on goat-anti-mouse IgG (115-006-0710; Jackson)-coated culture plates. Cells were pre-incubated with blocking antibodies or inhibitor for 2 h with 20 µg/ml anti-dectin-1 (MAB1859; R&D Systems), 20 µg/ml anti-dectin-2 (MAB3114; R&D Systems) or 75 µM z-VRPR-FMK (Malt1 inhibitor [22]; Alexis). DCs were transfected with 25 nM siRNA (SEQ ID NO:5-8) using transfection reagens DF4 (Dharmacon), and used for experiments 72 h after transfection. 'SMARTpool' siRNAs used were: Syk (M-003176-03), CARD9 (M-004400-01), Bcl10 (M-004381-02), Malt1 (M-005936-02), c-Rel (M-004768-01) and non-targeting siRNA (D-001206-13) as a control (Dharmacon). […] PCR amplification was performed with the SYBR green method in an ABI 7900HT sequence detection system (Applied Biosystems).Silencing of expression was verified by real-time PCR and flow cytometry (not shown).
Quantitative real-time PCR. mRNA isolation, cDNA synthesis and PCR amplification with the SYBR green method in an ABI 7500 Fast PCR detection system (Applied Biosystems) were performed as described. Standard conditions according to manufacturer's instructions were used. Specific primers were designed using Primer Express 2.0 (Applied Biosystems; Supplementary Table 1). The Ct value is defined as the number of PCR cycles where the fluorescence signal exceeds the detection threshold value. For each sample, the normalized amount of target mRNA was calculated from the obtained Ct values for both target and GAPDH mRNA with Nt = 2^Ct(GAPDH)-Ct(target) The relative mRNA expression was obtained by setting Nt in curdlan-or LPS-stimulated samples at 1 within one experiment and for each donor.

Malt1 [4] = experiment: Cytokine production by ELISA in supernatants of stimulated DCs; conditions: 75 µM z-VRPR-FMK
Experimental: as §2
Cytokine production. Cell culture supernatants were harvested after 28 h of stimulation and concentrations of IL-1β, IL-23, IL-6 (Invitrogen) and IL-12p70 (eBioscience) were determined by ELISA.

Malt1 [5] = experiment: Th17 polarization assay (primed DCs co-cultured with memory CD4+ T cells); conditions: DCs pre-incubated with z-VRPR-FMK
Experimental: Th17 polarization assay. Memory CD4^+ T cells were isolated as described previously. Human PBMC were isolated from heparinized human peripheral blood by density gradient centrifugation on Lymphoprep (Nycomed), and PBMC were subsequently seperated in monocytes and PBL by density gradient centrifugation on Percoll (Pharmacia). Memory CD4^+ T cells were isolated with CD45R0^+-PE (Dakopatts) and anti-PE-beads (MACS). iDCs were preincubated for 2 h with inhibitors, activated for 16 h with curdlan or heat-killed Candida spp. and subsequently co-cultured with memory CD4^+ T cells as described (20,000 T cells/2000 DCs in the presence of 10 pg/ml Staphylococcus aureus enterotoxin B (Sigma). After 5 days of co-culture, supernatants were harvested and analyzed for IL-17 production by ELISA (Biosource). Cells were further cultured in the presence of 10 U/ml IL-2 (Chiron) and resting cells were restimulated after 12 days with 100 ng/ml PMA (Sigma) and 1 µg/ml ionomycin (Sigma) for 6 h, the last 5 h in the presence of 10 µg/ml brefeldin A (Sigma), and analyzed for intracellular cytokine expression by staining with biotinylated mouse anti-IL-17 (ebio64DE; eBioscience), followed by incubation with streptavidin-PE (BD Pharmingen) and FITC-conjugated mouse anti-IFN-γ (25723.11; BD).

[6] = more strongly than dectin-1 inhibition
[7] = DCs after C. albicans stimulation
[8] = DCs stimulated with C. albicans strain CBS8781 and CBS2712
[9] = DCs stimulated with C. lusitaniae and C. nivariensis

z-Valine-Arginine-Proline-DL-Arginine-FMK [z-VRPR-FMK]
activation of c-Rel (Malt1 [1]): completely abolished | activation of the other NF-κB subunits (Malt1 [1]): without affecting | nuclear translocation of c-Rel (Malt1 [2]): specifically interferes | IL-1β mRNA levels (Malt1 [3]): markedly reduced | IL-6 mRNA production (Malt1 [3]): slightly enhanced | IL-12p35 mRNA production (Malt1 [3]): slightly enhanced | IL-12p40 mRNA production (Malt1 [3]): neither dependent on Malt1 expression nor activation | IL-23p19 mRNA levels (Malt1 [3]): markedly reduced | C. albicans CBS2712-induced IL-1β expression (Malt1 [4]; [6]): decreased | C. albicans CBS2712-induced IL-23 expression (Malt1 [4]; [6]): decreased | IL-12p70 production (Malt1 [4]; [7]): unaffected | expression of IL-6 (Malt1 [4]; [7]): slightly upregulated | expression of IL-1β: requirement for Malt1 activation (Malt1 [4]; [8]): required | expression of IL-23: requirement for Malt1 activation (Malt1 [4]; [8]): required | IL-1β production (Malt1 [4]; [9]): largely dependent on Malt1 protease activity | IL-6 expression (Malt1 [4]; [9]): slightly enhanced | IL-12p70 (Malt1 [4]; [9]): unaffected | IL-23 production (Malt1 [4]; [9]): largely dependent on Malt1 protease activity | IL-1β protein expression (Malt1 [4]; curdlan-stimulated DCs, 28 h): severely reduced | IL-6 expression (Malt1 [4]; curdlan-stimulated DCs, 28 h): only slightly enhancing | IL-12p70 expression (Malt1 [4]; curdlan-stimulated DCs, 28 h): without affecting | IL-23 protein expression (Malt1 [4]; curdlan-stimulated DCs, 28 h): severely reduced | ability of DCs primed by the different Candida spp. to promote IL-17 expression in CD4+ T cells (Malt1 [5]; C. albicans CBS8781, CBS2712, C. lusitaniae, C. nivariensis, intracellular IL-17 day 12): completely blocked | capacity of curdlan-primed DCs to induce IL-17 expression in CD4+ T cells (Malt1 [5]; IL-17 ELISA day 5, intracellular IL-17 day 12): markedly reduced
